Measured values from patent US20220323406A1, “METHODS AND COMPOSITIONS FOR DIFFERENTIATING STEM CELLS” (Massachusetts Institute of Technology, priority 2019, published 2022).

Key:
[1] = Animal study: oral gavage every other day for two weeks, body weight; assay type: in vivo, mouse
Description: Following a similar protocol as previously reported for SINE treatment in the context of cancer (Arango et al., 2017; Azmi et al., 2013; Hing et al., 2016; Zheng et al., 2014), KPT-330 was administered at a dose 10 mg/kg via oral gavage every other day over a two-week span in C57BL/6 wild-type mice, and body weight was monitored for any clear toxicity. […] Given animal weight loss on the standard chemotherapeutic dosage regimen, and additional evidence that sustained dosage of SINEs adversely impacts T cell populations (Tyler et al., 2017), Applicants sought to explore dosing regimens well below 10 mg/kg, to see if a pro-Paneth phenotype may exist below potential toxicities. […] Applicants tracked animal weight every other day, and at day 14 collected the proximal and distal thirds of the small intestine for histological quantification of Paneth, stem, and goblet populations (FIG. 26A). […] Paneth cells were counted within well preserved crypts, with at minimum 30 crypts quantified per animal (representative images FIG. 30C) and then averaged to get mean Paneth cells per crypt in distal and proximal thirds of the small intestine. […] Applicants additionally quantified the abundance of Olfm4+ stem cells as well as PAS+ goblet cells within the same animals to ascertain whether the effect of SINE treatment was restricted to the Paneth cell compartment (representative images FIG. 30D,E). […]

intestinal organoids = test: Population RNA-sequencing of treated organoids; assay type: cell-based, mouse
Description: Population RNA-sequencing. Population RNA-seq was performed using a derivative of the Smart-Seq2 protocol for single cells. In brief, organoid media was aspirated and RLT+BME (Qiagen) was added to each well, and plate shaken for 30 minutes to fully lyse. Lysate was aliquoted into 4 identical fractions and stored at −80° C. until reverse transcription. RNA lysate was thawed and cleaned with a 2.2×SPRI ratio using Agencourt RNAClean XP beads (Beckman Coulter, A63987). RNA-seq was performed on a bulk population of sorted basal cells using Smart-Seq2 chemistry, starting with a 2.2×SPRI ratio cleanup. After oligo-dT priming, Maxima H Minus Reverse Transcriptase (ThermoFisher EP0753) was used to synthesize cDNA with an elongation step at 52° C. before PCR amplification (15 cycles for tissue, 18 cycles for sorted basal cells) using KAPA HiFi PCR Mastermix (Kapa Biosystems KK2602). Sequencing libraries were prepared using the Nextera XT DNA tagmentation kit (Illumina FC-131-1096) with 250 pg input for each sample. Libraries were pooled post-Nextera and cleaned using Agencourt AMPure SPRI beads with successive 0.7× and 0.8× ratio SPRIs and sequenced with an Illumina 75 Cycle NextSeq500/550v2 kit (Illumina FC-404-2005) with loading density at […], with paired end 35 cycle read structure. Samples were sequenced at an average read depth of 8.44 million reads per sample and a total of 96 samples.
Organoid samples were aligned to the Mm10 genome and transcriptome using STAR and RSEM. […] For module scoring with the in vivo Paneth and enteroendocrine cell-defining genes, Applicants used previously published gene sets and computed per sample module scores through the Seurat package.

[2] = system: ENR+CD organoids (ISC to Paneth cell differentiation); test: Primary screen: CCh-stimulated lysozyme secretion LYZ.S, 2.5-D 384-well ENR+CD organoid differentiation; assay type: cell-based, mouse; conditions: primary screen
Source text: High-throughput screening.

ENR+CD organoids = test: Secondary (validation) screen: ATP (CTG) assay, 2.5-D 384-well ENR+CD organoids; assay type: cell-based, mouse; conditions: 6-day ENR+CD, vs ENR+CD+DMSO

Q: With `O=C(/C=C\n1cnc(-c2cc(C(F)(F)F)cc(C(F)(F)F)c2)n1)NNc1cnccn1` [KPT-330] as the molecule, how does the body weight ([1]; 10 mg/kg oral gavage every other day) read?
A: The body weight was “significant weight loss”.

Q: And the body weight ([1]; 0.2, 0.05 and 0.01 mg/kg oral gavage every other day)?
A: Its body weight is “no significant changes in animal weight at any dose”.

Q: And the “number of differentially expressed genes among hit compounds” value (intestinal organoids; ENR and ENR+CD)?
A: Its value is “most differentially expressed genes”.

Q: And the “secretory cell gene set scores (Paneth, goblet, EEC) from bulk transcripts” value (intestinal organoids; ENR+CV, ENR+CD or ENR)?
A: The value was “increase secretory cells (Paneth, goblet, and EEC)”.

Q: What about the “Dose.FC.LYZ.S (log2 fold change)” value ([2]; dose 0.08 uM) of the same molecule?
A: Its value is 0.259.

Q: And the “Dose.FC.LYZ.S (log2 fold change)” value ([2]; dose 0.40 uM)?
A: Its value is −0.282.

Q: What about the “Dose.FC.LYZ.S (log2 fold change)” value ([2]; dose 2.00 uM) of the same molecule?
A: Its value is −0.390.

Q: And the “Dose.FC.LYZ.S (log2 fold change)” value ([2]; dose 10.00 uM)?
A: Its value is −0.423.

Q: What about the Dose.FC.CTG (ENR+CD organoids; 0.02 uM) of the same molecule?
A: Its Dose.FC.CTG is 0.126 log2 fold change.

Q: What about the Dose.FC.CTG (ENR+CD organoids; 0.04 uM) of the same molecule?
A: Its Dose.FC.CTG is 0.029 log2 fold change.

Q: And the Dose.FC.CTG (ENR+CD organoids; 0.08 uM)?
A: The Dose.FC.CTG was 0.141 log2 fold change.

Q: And the Dose.FC.CTG (ENR+CD organoids; […])?
A: The Dose.FC.CTG was 0.120 log2 fold change.
